This note sets out measurements from patent US9120791B2, “Indolizine compounds, a process for their preparation and pharmaceutical compositions containing them” (LES LABORATOIRES SERVIER, priority 2012, dated 2015).

For orientation: IC50 means the concentration needed to halve the response being measured.

Counter-ions that a name gives are not always drawn. Like-named read-outs stand apart in the source and are kept apart here.

One experiment concerns the target Bcl-2 protein (Homo sapiens (Human), UniProt P10415). Kind of experiment: Inhibition of Bcl-2 by the fluorescence polarisation technique. The note with it: read-out: IC50 (nM) Bcl-2 FP. Type of experiment: binding. As to the method: The fluorescence polarisation tests were carried out on microplates (384 wells). […] After incubation for 2 hours, the fluorescence polarisation is measured.
In general terms: Fluorescence polarisation rises when a labelled molecule tumbles more slowly, as on binding a larger partner.

Experiment [1] deals with RS4;11 leukaemia tumour line. Kind of experiment: In vitro cytotoxicity (Microculture Tetrazolium Assay, 48 hours). Type of experiment: cell-based. The settings on record: read-out: IC50 (nM) MTT RS4. The method, then: The cytotoxicity studies were carried out on the RS4;11 leukaemia tumour line.
The cells are distributed onto microplates and exposed to the test compounds for 48 hours.

Where [2] appears, read: fluorescence polarisation test, concentration that inhibits fluorescence polarisation by 50%.
Setting [3] is: Homo sapiens, RS4;11 cells, 48 hours exposure, MTT, concentration that inhibits cell viability by 50%.
Setting [4] is: RS4;11 cells, 48 hours exposure, MTT, concentration that inhibits cell viability by 50%.

Chain of Bcl-2 protein (P10415 whole entry): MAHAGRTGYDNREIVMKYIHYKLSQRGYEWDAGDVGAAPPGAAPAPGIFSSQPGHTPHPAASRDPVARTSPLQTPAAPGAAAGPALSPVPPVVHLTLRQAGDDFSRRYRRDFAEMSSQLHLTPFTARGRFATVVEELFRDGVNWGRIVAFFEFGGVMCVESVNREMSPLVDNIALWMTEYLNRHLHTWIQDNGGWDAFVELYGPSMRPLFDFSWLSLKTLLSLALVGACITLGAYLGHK

Regarding `Cc1cccc(N(C(=O)c2cc(-c3cc(Cl)ccc3C(=O)N3Cc4ccccc4C[C@H]3CN3CCOCC3)n3c2CCCC3)c2ccc(O)cc2)c1` [Example 126, 3-(5-Chloro-2-{[(3S)-3-(morpholin-4-ylmethyl)-3,4-dihydroisoquinolin-2(1H)-yl]carbonyl}phenyl)-N-(4-hydroxyphenyl)-N-(3-methylphenyl)-5,6,7,8-tetrahydroindolizine-1-carboxamide hydrochloride], the results for the IC50 (at Bcl-2 protein (setting [2]); in experiment [1] (setting [3])) were 26 nM and 115 nM, respectively.
On to `O=C(c1cc(-c2cc3c(cc2C(=O)N2Cc4ccccc4C[C@H]2C[N+]2([O-])CCOCC2)OCO3)n2c1CCCC2)N(c1ccccc1)c1ccc(O)cc1` [Example 109, N-(4-Hydroxyphenyl)-3-(6-{[(3S)-3-[(4-oxidomorpholin-4-yl)methyl]-3,4-dihydroisoquinolin-2(1H)-yl]carbonyl}-1,3-benzodioxol-5-yl)-N-phenyl-5,6,7,8-tetrahydroindolizine-1-carboxamide], for which the IC50 on Bcl-2 protein (setting [2]) is 30 nM; in experiment [1] (setting [3]) it was 483 nM.
For `Cn1ccc2cc(N(C(=O)c3cc(-c4cc5c(cc4C(=O)N4Cc6ccccc6C[C@H]4CN4CCOCC4)OCCO5)n4ccccc34)c3ccc(O)cc3)ccc21` [Example 70, N-(4-Hydroxyphenyl)-N-(1-methyl-1H-indol-5-yl)-3-{7-[((3S)-3-(4-morpholinylmethyl)-3,4-dihydro-2(1H)-isoquinolinyl)carbonyl]-2,3-dihydro-1,4-benzodioxin-6-yl}-1-indolizine carboxamide hydrochloride], in that order: 19 nM and 14 nM.
For `CN1CCN(C[C@@H]2Cc3ccccc3CN2C(=O)c2ccc(Cl)cc2-c2cc(C(=O)N(c3ccc(O)cc3)c3ccc4c(ccn4C)c3)c3n2CCCC3)CC1=O` [Example 107, 3-(5-Chloro-2-{[(3S)-3-[(4-methyl-3-oxopiperazin-1-yl)methyl]-3,4-dihydroisoquinolin-2(1H)-yl]carbonyl}phenyl)-N-(4-hydroxyphenyl)-N-(1-methyl-1H-indol-5-yl)-5,6,7,8-tetrahydroindolizine-1-carboxamide hydrochloride], in that order: 7 nM and 8.29 nM.
For `CN1CCCc2cc(N(C(=O)c3cc(-c4cc(Cl)ccc4C(=O)N4Cc5ccccc5C[C@H]4CN4CCOCC4)n4c3CCCC4)c3ccc(O)cc3)ccc21` [Example 26, 3-{5-Chloro-2-[((3S)-3-(4-morpholinylmethyl)-3,4-dihydro-2(1H)-isoquinolinyl)carbonyl]phenyl}-N-(4-hydroxyphenyl)-N-(1-methyl-1,2,3,4-tetrahydro-6-quinolinyl)-5,6,7,8-tetrahydro-1-indolizine carboxamide hydrochloride], the IC50 on Bcl-2 protein (setting [2]) was 17 nM; in experiment [1] (setting [3]), 40 nM.
Consider `CN1CCOc2cc(N(C(=O)c3cc(-c4cc(Cl)ccc4C(=O)N4Cc5ccccc5C[C@H]4CN4CCOCC4)n4c3CCCC4)c3ccc(O)cc3)ccc21` [Example 27, 3-{5-Chloro-2-[((3S)-3-(4-morpholinylmethyl)-3,4-dihydro-2(1H)-isoquinolinyl)carbonyl]phenyl}-N-(4-hydroxyphenyl)-N-(4-methyl-3,4-dihydro-2H-1,4-benzoxazin-7-yl)-5,6,7,8-tetrahydro-1-indolizine carboxamide hydrochloride], for which the half-inhibitory concentration (IC50) on Bcl-2 protein (setting [2]) was determined as 17 nM; in experiment [1] (setting [3]), 35.4 nM.
The like results for `O=C(c1cc(-c2cc3c(cc2C(=O)N2Cc4ccccc4C[C@H]2CN2CCOCC2)OCCO3)n2c1CCCC2)N(c1ccccc1)c1ccc(O)cc1` [Example 34, N-(4-Hydroxyphenyl)-3-{7-[((3S)-3-(4-morpholinylmethyl)-3,4-dihydro-2(1H)-isoquinolinyl)carbonyl]-2,3-dihydro-1,4-benzdioxin-6-yl}-N-phenyl-5,6,7,8-tetrahydro-1-indolizine carboxamide hydrochloride] were, in that order, 27 nM and 65.8 nM.
Consider “Tert-butyl 8-{[4-hydroxy(1-methyl-1H-indol-5-yl)anilino]carbonyl}-6-{6-[((3S)-3-(4-morpholinylmethyl)-3,4-dihydro-2(1H)-isoquinolinyl)carbonyl]-1,3-benzodioxol-5-yl}-3,4-dihydropyrrolo[1,2-a]pyrazine-2(1H)-carboxylate [Example 72]”, for which the values for the IC50 (at Bcl-2 protein (setting [2]); in experiment [1] (setting [4])) were 220 nM and 270 nM, respectively.
Turning to `Cn1ccc2cc(N(C(=O)c3cc(-c4cc5c(cc4C(=O)N4Cc6ccccc6C[C@H]4CN4CCOCC4)OCCO5)n4c3CCCC4)c3ccc(O)cc3)ccc21` [Example 35, N-(4-Hydroxyphenyl)-N-(1-methyl-1H-indol-5-yl)-3-{7-[((3S)-3-(4-morpholinylmethyl)-3,4-dihydro-2(1H)-isoquinolinyl)carbonyl]-2,3-dihydro-1,4-benzodioxin-6-yl}-5,6,7,8-tetrahydro-1-indolizine carboxamide], the figures for the IC50 (at Bcl-2 protein (setting [2]); in experiment [1] (setting [3])) were 15 nM and 11.7 nM, respectively.
Turning to `C[C@@H]1COCCN1C[C@@H]1Cc2ccccc2CN1C(=O)c1cc2c(cc1-c1cc(C(=O)N(c3ccc(O)cc3)c3ccc4c(ccn4C)c3)c3n1CCCC3)OCO2` [Example 15, N-(4-Hydroxyphenyl)-N-(1-methyl-1H-indol-5-yl)-3-{6-[((3S)-3-{[(3R)-3-methylmorpholinyl]methyl}-3,4-dihydro-2(1H)-isoquinolinyl)carbonyl]-1,3-benzodioxol-5-yl}-5,6,7,8-tetrahydro-1-indolizine carboxamide hydrochloride], the figures for the IC50 (on Bcl-2 protein; in experiment [1] (setting [4])) were 17 nM and 20.4 nM, respectively.
For `COc1ccc(N(C(=O)c2cc(-c3cc(Cl)ccc3C(=O)N3Cc4ccccc4C[C@H]3CN3CCOCC3)n3c2CCCC3)c2ccc(O)cc2)cc1C(F)(F)F` [Example 53, 3-{5-Chloro-2-[((3S)-3-(4-morpholinylmethyl)-3,4-dihydro-2(1H)-isoquinolinyl)carbonyl]phenyl}-N-(4-hydroxyphenyl)-N-[4-methoxy-3-(trifluoro-methyl)phenyl]-5,6,7,8-tetrahydro-1-indolizine carboxamide hydrochloride], the IC50 at Bcl-2 protein (setting [2]) was determined as 180 nM; in experiment [1] (setting [3]), 138 nM.
For `Cc1ccc(C(=O)N2Cc3ccccc3C[C@H]2CN2CCOCC2)c(-c2cc(C(=O)N(c3ccc(O)cc3)c3ccc4c(ccn4C)c3)c3n2CCCC3)c1` [Example 95, N-(4-Hydroxyphenyl)-N-(1-methyl-1H-indol-5-yl)-3-(5-methyl-2-{[(3S)-3-(morpholin-4-ylmethyl)-3,4-dihydroisoquinolin-2(1H)-yl]carbonyl}phenyl)-5,6,7,8-tetrahydroindolizine-1-carboxamide hydrochloride], in that order: 6 nM and 13.5 nM.
`Cc1ccc(N(C(=O)c2cc(-c3cc(Cl)ccc3C(=O)N3Cc4ccccc4C[C@H]3CN3CCOCC3)n3c2CCCC3)c2ccc(O)cc2)cc1Cl` [Example 97, N-(3-Chloro-4-methylphenyl)-3-(5-chloro-2-{[(3S)-3-(morpholin-4-ylmethyl)-3,4-dihydroisoquinolin-2(1H)-yl]carbonyl}phenyl)-N-(4-hydroxyphenyl)-5,6,7,8-tetrahydroindolizine-1-carboxamide hydrochloride]: the results for the IC50 (on Bcl-2 protein (setting [2]); in experiment [1] (setting [3])) were 20 nM and 45.4 nM, respectively.
Take `O=C(c1cc(-c2cc3c(cc2C(=O)N2Cc4ccccc4C[C@H]2CN2CCOCC2)OCCCO3)n2c1CCCC2)N(c1ccccc1)c1ccc(O)cc1` [Example 31, N-(4-Hydroxyphenyl)-3-{8-[((3S)-3-(4-morpholinylmethyl)-3,4-dihydro-2(1H)-isoquinolinyl)carbonyl]-3,4-dihydro-2H-1,5-benzodioxepin-7-yl}-N-phenyl-5,6,7,8-tetrahydro-1-indolizine carboxamide hydrochloride]: the IC50 was found to be 33 nM at Bcl-2 protein (setting [2]) and 340 nM in experiment [1] (setting [3]).
The like results for `COc1cccc(N(C(=O)c2cc(-c3cc(Cl)ccc3C(=O)N3Cc4ccccc4C[C@H]3CN3CCOCC3)n3c2CCCC3)c2ccc(O)cc2)c1` [Example 124, 3-(5-Chloro-2-{[(3S)-3-(morpholin-4-ylmethyl)-3,4-dihydroisoquinolin-2(1H)-yl]carbonyl}phenyl)-N-(4-hydroxyphenyl)-N-(3-methoxyphenyl)-5,6,7,8-tetrahydroindolizine-1-carboxamide hydrochloride] were, in that order, 28 nM and 101 nM.
For `O=C(c1cc(-c2cc3c(cc2C(=O)N2Cc4ccccc4C[C@H]2CN2CCOCC2)OCO3)n2c1CCCC2)N(c1ccc(O)cc1)c1ccc(O)cc1` [Example 6, N,N-bis(4-Hydroxyphenyl)-3-{6-[((3S)-3-(4-morpholinylmethyl)-3,4-dihydro-2(1H)-isoquinolinyl)carbonyl]-1,3-benzodioxol-5-yl}-5,6,7,8-tetrahydro-1-indolizine carboxamide hydrochloride], the IC50 was 15 nM on Bcl-2 protein (setting [2]) and 30 nM in experiment [1] (Homo sapiens, RS4-11, 48 h).
Consider `Cc1ccc(N(C(=O)c2cc(-c3cc(F)ccc3C(=O)N3Cc4ccccc4C[C@H]3CN3CCOCC3)n3c2CCCC3)c2ccc(O)cc2)cc1F` [Example 91, N-(3-Fluoro-4-methylphenyl)-3-(5-fluoro-2-{[(3S)-3-(morpholin-4-ylmethyl)-3,4-dihydroisoquinolin-2(1H)-yl]carbonyl}phenyl)-N-(4-hydroxyphenyl)-5,6,7,8-tetrahydroindolizine-1-carboxamide hydrochloride], for which the IC50 at Bcl-2 protein (setting [2]) amounted to 8 nM; in experiment [1] (setting [3]) it was 65.5 nM.
